Assay results taken from a melting point compilation (Tetko et al.; mined from patent text by program, amines drawn as free bases though some values may be those of a salt).

Work on `CC(=O)Nc1ccc2[nH]c(C(=O)N3CC(CCl)c4c3cc(N)c3ccccc43)cc2c1` (stereo unspecified) yielded a melting point of over 300 °C.
With `CCOC(=O)/C=C(\C)c1cccc([N+](=O)[O-])c1` the melting point was 43 to 44 °C.
For `NC(=O)C1(N)CCCCC1`, the melting point was 99 to 102 °C.
`CCCc1ccnc2c(=O)[nH]c(-c3cc(S(=O)(=O)NCCN4CCNC4=O)ccc3OCC)nc12` gave a melting point of 221 to 222 °C.
`O=C(/C=C\c1ccccc1)Nc1ccccc1` showed a melting point of 101 to 102 °C.
`Nc1cccc(-c2ccc(CCN3CC4C(C3)C4NC(=O)Nc3ccccc3)cc2)n1` (stereo unspecified) gave a melting point of 192 to 194 °C.
`Nc1cccc(-n2cnc3c([N+](=O)[O-])cccc32)c1` gave a melting point of 105 to 110 °C.
For `Cc1c[nH]c(=O)c2c3c([nH]c12)CCC(=O)C3`, the melting point was over 260 °C.
With `CCOc1ccc(C2(N)NC(Nc3ccc4c(c3)OCCO4)=NC=C2F)cc1` (stereo unspecified) the melting point was 164 to 167 °C.
`Cc1cccc(CC(=S)Nc2ccccc2C(=O)O)c1` showed a melting point of 148 to 150 °C.
`Cc1c2n(c3ccccc13)CCC2O` (stereo unspecified) showed a melting point of 118 to 120 °C.
In the case of `CN(C)c1cccc(CN2CC=C(c3c[nH]c4ccc(Cl)cc34)CC2)c1`, the melting point was 193 to 195 °C.
Work on `CCC(=O)N1CC(=O)C2=C(C1)CN1NC(N3CCOCC3)=NC1=N2` yielded a melting point of 278 to 280 °C.
In the case of `CCn1nc2c(N)nc3c(c2c1CC(C)(C)O)CCCC3`, the melting point was 202 to 204 °C.
For `C1=C(CCc2ccccc2)CCN(Cc2nc3ccccc3[nH]2)C1`, the melting point was 177 to 179 °C.
Molecule `CCN(CC)c1ccc2nc3c4ccccc4c(=Nc4nc5ccc(Cl)cc5s4)cc-3oc2c1` has a melting point of 229 to 231 °C.
Work on `O=C(O)c1cc(C(F)(F)F)cc(S(=O)(=O)Cc2ccccc2)c1` yielded a melting point of 184 to 186 °C.
For `CC(C)(C(=O)c1ccc(C(=O)c2ccc(C(=O)C(C)(C)N3CCOCC3)cc2)cc1)N1CCOCC1`, the melting point was 145 to 147 °C.
`Cc1cc(C)cc(C(=O)N2CCNC(c3ccc(Cl)c(Cl)c3)C2)c1` (single isomer, unassigned; (+)) gave a melting point of 97 to 100 °C.
With `COc1ccc(C(=O)Nc2ccccc2C(C)(O)c2ccccn2)cc1` (stereo unspecified) the melting point was 127 to 128 °C.
Molecule `O=c1cc(-c2nnn[nH]2)oc2cc(CCc3cccc(OCc4ccc5ccccc5n4)c3)ccc12` has a melting point of 201 to 205 °C.
Work on `Nc1ccc(-c2cc3c(Oc4ccc(Cl)cc4)cncc3s2)cc1` yielded a melting point of 178 to 182 °C.
`CC(c1oc2ccc(F)cc2c(=O)c1-c1ccccc1)n1cnc2c(N)ncnc21` (stereo unspecified) gave a melting point of 264 to 269 °C.
`COc1ccc2[nH]c3c(c2c1)CC(OC(=O)c1ccccc1)CC3` (stereo unspecified) gave a melting point of 135 to 141 °C.
Molecule `C=CCON=C(CCC)C1=C(O)CC(c2cc(C)cs2)CC1=O` (stereo unspecified) has a melting point of 72 to 74 °C.
Work on `CCc1noc(C(=NOC)c2ccccc2COc2cc(C)ccc2C)n1` yielded a melting point of 112 °C.
For `COc1cc(C(=O)O)cc2ccc3ccccc3c(=O)c12`, the melting point was 252 to 253 °C.
Molecule `CC(=O)c1nc2ccc(OC(C)C)cc2cc1O` has a melting point of 95 to 97 °C.
For `NC(=O)c1sc2nc(N3CCC(NCC(O)c4cccc(F)c4)CC3)cc(C(F)(F)F)c2c1N` (stereo unspecified), the melting point was 215 °C.
`O=C(O)c1cc(Cc2c[nH]cn2)ccc1O` gave a melting point of 254 to 258 °C.
Work on `CC(C)OC(=O)COc1ccc(NC(=O)NC(=O)c2ccc(C(N)=S)cc2)cc1` yielded a melting point of 224 to 227 °C.
With `NC(=O)N(O)CCn1ccc2ccccc21` the melting point was 57 to 60 °C.
Molecule `Cc1nc(NC(=O)c2cnn3c(C(F)(F)F)cc(-c4ccc(Cl)cc4)nc23)sc1S(N)(=O)=O` has a melting point of 305 °C.
`CC(C)(C)OC(=O)N1CCC[C@H](C(=O)c2ccccc2)C1` showed a melting point of 75 to 79 °C.
`COC(=O)c1ccc(C(=N)NC(=O)OC(C)(C)C)cc1` gave a melting point of 157 °C.
For `CCCCN1CCC(N(Cc2ccc(Nc3ccnc4ccccc34)cc2)C(C)=O)CC1`, the melting point was 85 to 105 °C.
Molecule `Fc1ccc(-c2c[nH]c(C3CCN(CC4CCCCC4)CC3)n2)cc1` has a melting point of 220 to 222 °C.
`COc1ccc(Cl)cc1N1C(=O)CN(C)C1=S` showed a melting point of 245 to 247 °C.
In the case of `O=C(NC1=NN(c2ccc(C(=O)C(F)(F)F)cc2)C(c2ccccc2)C1)C(F)(F)F` (stereo unspecified), the melting point was 197 to 198 °C.
`O=C(OCc1cc(OCCCO)cc(OCCCO)c1)c1ccccc1` showed a melting point of 78 to 82 °C.
`CCOC(=O)C(=NOC1CCCCC1)c1csc(N)n1` showed a melting point of 125 to 126 °C.
Molecule `CSCC(=O)[C@H](CC1CCCCC1)NC(=O)[C@H](CC(C)C)NC(=O)OCc1ccccc1` has a melting point of 83 to 84 °C.
`O=C1C(O)OC=CN1Cc1ccccc1` (stereo unspecified) gave a melting point of 134 °C.
In the case of `COC(=O)CC(NC(=O)C(C)(C)C)C(C)=O` (stereo unspecified), the melting point was 68 to 69 °C.
`CC(=Cc1ccc(N(C)C)cc1C)[N+](=O)[O-]` gave a melting point of 75 to 76 °C.
`COCCOc1ccc(/C=C/C(=O)NS(=O)(=O)c2cccnc2)c(Oc2ncc(C(F)(F)F)cc2Cl)c1` showed a melting point of 165 to 167 °C.
Work on `O=C(O)COc1ccc(CCCS(=O)(=O)c2ccc(Cl)cc2)cc1` yielded a melting point of 159 to 160 °C.
`CCCCCCc1cc2c(s1)-n1c(C)nnc1CN=C2c1ccc(OC)cc1` gave a melting point of 97 to 99 °C.
Molecule `O=C1C=CC(=O)C(C(=O)CCn2sc(Cl)cc2=O)=C1` has a melting point of 181 to 183 °C.
Molecule `CC(=O)Nc1nc(Oc2ccccc2)nc2nc(-c3ccco3)nn12` has a melting point of 168 to 170 °C.
`O=C(O)C1=Cc2cc(S(=O)(=O)NCc3ccccc3)cc(Cl)c2OC1C(F)(F)F` (stereo unspecified) gave a melting point of 167 to 174 °C.
For `CC(C)c1cc2c(cc1O)C(=O)CCC2`, the melting point was 149 to 150 °C.
Work on `OCCOCCn1ccc2ncnc(Nc3ccc(OCc4cccc(F)c4)c(Cl)c3)c21` yielded a melting point of 168 to 169 °C.
`CC(Cn1ncnn1)n1nnc2cc3c(=O)n(CCF)nnc3cc2c1=O` (stereo unspecified) showed a melting point of 196 to 198 °C.
`OCC1C=CC(n2c(Br)nc3cc(Cl)c(Cl)cc32)C1` (stereo unspecified) gave a melting point of 126 to 128 °C.
Work on `N#Cc1cc(-c2nc3ccccc3s2)ccc1N` yielded a melting point of 207 to 211 °C.
For `C(=Cc1ccccc1)COc1ccc(C2OCCO2)cc1`, the melting point was 102 °C.
`Cc1nn(C(=O)NC(C)(C)CCc2ccccc2)c(=O)n1N` gave a melting point of 87 °C.
`Nc1cc(-c2cc(Cl)cc(Cl)c2)cc2nc(-c3ccco3)nn12` gave a melting point of 257 to 260 °C.
`COc1ccc(S(=O)(=O)Nc2ccc([C@@H](C)C(N)=O)cc2)cc1` showed a melting point of 118 to 120 °C.
Work on `CCOCc1c[nH]c(=O)c(N)c1Sc1cc(C)cc(C)c1` yielded a melting point of 149 to 150 °C.
For `O=C(O)CCCOc1cccc(CCCCCCOc2ccc3c(c2CCCc2ccccc2)OCCC3=O)c1CCC(=O)O`, the melting point was 104 to 106 °C.
Molecule `COc1cc(Nc2nccc(-c3ccc(CN)cc3)n2)cc(OC)c1OC` has a melting point of 143 to 144 °C.
With `CC(CC(=O)O)C(=O)c1ccc(C(=O)C(C)CC(=O)O)cc1` (stereo unspecified) the melting point was 195 to 202 °C.
Work on `Cn1cc(-c2cc(-c3ccc4[nH]ccc4c3)ccn2)n(-c2ccc(C(C)(C)C#N)cc2)c1=O` yielded a melting point of 238 °C.
For `CCCNC(=S)N1CCc2cc(S(=O)(=O)N3CC(c4ccccc4)NC3=O)ccc21` (stereo unspecified), the melting point was 222 to 224 °C.
`Clc1ccc2c(c1)SCc1cccnc1C2=C1CCNCC1` gave a melting point of 206 to 215 °C.
With `O=C(Nc1ccc(C(=O)N2CCc3sc(Cc4ccccn4)nc3-c3ccccc32)cc1)c1ccccc1-c1ccccc1` the melting point was 215 to 218 °C.
Work on `CS(=O)(=O)Nc1cccc(Nc2nc(NCc3cccc(O)c3)c3nc[nH]c3n2)c1` yielded a melting point of 221 to 225 °C.
`CCCn1cncc1CSc1nc2ccc([N+](=O)[O-])cc2[nH]1` gave a melting point of 189 to 190 °C.
Work on `CC(C)(C)CC(C)(C)c1ccc(OCCOC(=O)c2ccc(Nc3nc(Cl)nc(Cl)n3)cc2)cc1` yielded a melting point of 249 to 251 °C.
